Reference: ChEMBL document CHEMBL5584210, “Design, synthesis and antitubercular assessment of 1, 2, 3-triazole incorporated thiazolylcarboxylate derivatives” (Bioorg Med Chem Lett, 2024)
Converted amounts (≈) assume the structure as drawn.

Tests used:
[1] = test system: Mycobacterium tuberculosis; experiment: Antimycobacterial activity against Mycobacterium tuberculosis H37Rv by alamar blue assay; type: functional
[2] = Cytotoxicity against mouse RAW264.7 cells assessed as inhibition of cell growth at 25 ug/ml incubated for 48 hrs by MTT assay relative to control; type: toxicity, cell-based; settings: at 25 µg/mL

Row | SMILES | MIC [1] | inhibition at 48 h, 25 ug/ml [2]
1 | CCc1cc(-c2nc(C)c(C(=O)OCc3cn(-c4cccc(C)c4)nn3)s2)ccn1 | 6.25 µg/mL (≈ 14.9 µM) | 30.1%
2 | CCc1cc(-c2nc(C)c(C(=O)OCc3cn(-c4ccc(C)c([N+](=O)[O-])c4)nn3)s2)ccn1 | 12.5 µg/mL (≈ 26.9 µM) | 
3 | CCc1cc(-c2nc(C)c(C(=O)OCc3cn(-c4ccccc4Cl)nn3)s2)ccn1 | 25 µg/mL (≈ 56.8 µM) | 
4 | CCc1cc(-c2nc(C)c(C(=O)OCc3cn(-c4ccc(Br)cc4)nn3)s2)ccn1 | > 25 µg/mL | 
5 | CCc1cc(-c2nc(C)c(C(=O)OCc3cn(-c4ccccc4OC)nn3)s2)ccn1 | > 25 µg/mL | 
6 | CCCc1cc(-c2nc(C)c(C(=O)OCc3cn(-c4ccc(CC)cc4)nn3)s2)ccn1 | 1.56 µg/mL (≈ 3.49 µM) | 27.2%
7 | CCc1cc(-c2nc(C)c(C(=O)OCc3cn(-c4cccc([N+](=O)[O-])c4)nn3)s2)ccn1 | 12.5 µg/mL (≈ 27.7 µM) | 
8 | CCCc1cc(-c2nc(C)c(C(=O)OCc3cn(-c4ccc(C)cc4)nn3)s2)ccn1 | > 25 µg/mL | 
9 | CCc1ccc(-n2cc(COC(=O)c3sc(-c4ccnc(CC)c4)nc3C)nn2)cc1 | 3.12 µg/mL (≈ 7.2 µM) | 29.2%
10 | CCCc1cc(-c2nc(C)c(C(=O)OCc3cn(-c4cccc(Cl)c4)nn3)s2)ccn1 | 12.5 µg/mL (≈ 27.5 µM) | 
11 | CCc1cc(-c2nc(C)c(C(=O)OCc3cn(-c4c(C)cc(C)cc4C)nn3)s2)ccn1 | 25 µg/mL (≈ 55.9 µM) | 
12 | CCCc1cc(-c2nc(C)c(C(=O)OCc3cn(-c4cccc(OC)c4)nn3)s2)ccn1 | 6.25 µg/mL (≈ 13.9 µM) | 25.7%
13 | CCc1cc(-c2nc(C)c(C(=O)OCc3cn(-c4ccc(OC)cc4)nn3)s2)ccn1 | 12.5 µg/mL (≈ 28.7 µM) | 
14 | CCc1cc(-c2nc(C)c(C(=O)OCc3cn(-c4ccc(C)cc4)nn3)s2)ccn1 | 25 µg/mL (≈ 59.6 µM) | 
15 | CCCc1cc(-c2nc(C)c(C(=O)OCc3cn(-c4cccc([N+](=O)[O-])c4)nn3)s2)ccn1 | > 25 µg/mL | 
16 | CCCc1cc(-c2nc(C)c(C(=O)OCc3cn(-c4ccccc4)nn3)s2)ccn1 | 12.5 µg/mL (≈ 29.8 µM) | 
17 | CCCc1cc(-c2nc(C)c(C(=O)OCc3cn(-c4ccc(Br)cc4)nn3)s2)ccn1 | 25 µg/mL (≈ 50.2 µM) | 
18 | CCc1cc(-c2nc(C)c(C(=O)OCc3cn(-c4cccc(OC)c4)nn3)s2)ccn1 | 6.25 µg/mL (≈ 14.4 µM) | 26%
19 | CCc1cc(-c2nc(C)c(C(=O)OCc3cn(-c4cccc(Cl)c4)nn3)s2)ccn1 | 25 µg/mL (≈ 56.8 µM) | 
20 | CCc1cc(-c2nc(C)c(C(=O)OCc3cn(-c4ccc(C)cc4C)nn3)s2)ccn1 | 6.25 µg/mL (≈ 14.4 µM) | 21.9%
21 | CCc1cc(-c2nc(C)c(C(=O)OCc3cn(-c4ccccc4)nn3)s2)ccn1 | 25 µg/mL (≈ 61.7 µM) | 
22 | CCCc1cc(-c2nc(C)c(C(=O)OCc3cn(-c4ccc(Cl)cc4)nn3)s2)ccn1 | > 25 µg/mL | 
23 | CCc1cc(-c2nc(C)c(C(=O)OCc3cn(-c4ccccc4C)nn3)s2)ccn1 | 12.5 µg/mL (≈ 29.8 µM) | 
24 | CCCc1cc(-c2nc(C)c(C(=O)OCc3cn(-c4ccc(OC)cc4)nn3)s2)ccn1 | > 25 µg/mL | 
25 | CCc1cc(-c2nc(C)c(C(=O)OCc3cn(-c4ccc(Cl)cc4)nn3)s2)ccn1 | 25 µg/mL (≈ 56.8 µM) | 
26 | CCc1cc(-c2nc(C)c(C(=O)OCc3cn(-c4ccccc4F)nn3)s2)ccn1 | 12.5 µg/mL (≈ 29.5 µM) | 
27 | CCCc1cc(-c2nc(C)c(C(=O)OCc3cn(-c4ccccc4F)nn3)s2)ccn1 | 25 µg/mL (≈ 57.1 µM) | 
28 | O=C(O)c1cn(C2CC2)c2cc(N3CCNCC3)c(F)cc2c1=O [CIPROFLOXACIN] | 1.56 µg/mL (≈ 4.71 µM) | 
29 | CC[C@@H](CO)NCCN[C@@H](CC)CO [ETHAMBUTOL] | 3.12 µg/mL (≈ 15.3 µM) | 
